Measured values reported in patent US20090099158A1, “TETRAHYDROISOQUINOLINE COMPOUNDS AS MODULATORS OF THE HISTAMINE H3 RECEPTOR” (priority 2007, published 2009).

Tests used:
[1] = molecular target: T1, cloned human H3 receptors (Homo sapiens, UniProt Q9Y5N1); assay: H3 Receptor Binding (Human); settings: cloned human H3 receptors stably expressed in SK-N-MC cells; average of the results obtained
T1 construct: expressed in transfected cells; host or cells: SK-N-MC cells
Description: Binding of compounds to the cloned human H3 receptors, stably expressed in SK-N-MC cells, was performed as described by Barbier, A. J. et al. (Br. J. Pharmacol. 2004, 143(5), 649-661). Data for compounds tested in this assay are presented in Table 1 as an average of the results obtained.

Rat H3 [2] = molecular target: T2, Rat H3 (Rattus norvegicus, UniProt Q9QYN8); assay: H3 Receptor Binding (Rat); set-up: A rat brain without cerebellum (Zivic Laboratories Inc., Pittsburgh, Pa.) was homogenized; tissue Zivic Laboratories Inc; host or cells: rat brain without cerebellum (membranes); settings: rat brain (without cerebellum) membranes; 0.8 nM N-[3H]-α-methylhistamine, 60 min at 25° C.; IC50 converted to Ki; average
Description: A rat brain without cerebellum (Zivic Laboratories Inc., Pittsburgh, Pa.) was homogenized in 50 mM Tris-HCl/5 mM EDTA and centrifuged at 1,000 rpm for 5 min. The supernatant was removed and recentrifuged at 15,000 rpm for 30 min. Pellets were rehomogenized in 50 mM Tris/5 mM EDTA (pH 7.4). Membranes were incubated with 0.8 nM N-[^3H]-α-methylhistamine plus/minus test compounds for 60 min at 25° C. and harvested by rapid filtration over GF/C glass fiber filters (pretreated with 0.3% polyethylenimine) followed by four washes with buffer. Nonspecific binding was defined in the presence of 100 μM histamine. Inhibitory concentration (responsible for 50% inhibition of maximal effect, IC50) values were determined by a single site curve-fitting program (GraphPad, San Diego, Calif.) and converted to Ki values based on a N-[^3H]-α-methylhistamine dissociation constant (Kd) of 0.8 nM. Data for compounds tested in this assay are presented in Table 2 as an average of the results obtained.

human H3 receptor = molecular target: T3, human H3 receptor (Homo sapiens, UniProt Q9Y5N1); assay: Cyclic AMP Accumulation (human H3 receptor); assay type: cell-based; settings: SK-N-MC cells expressing a reporter construct and the human H3 receptor; average; read-out: Human pA2 (converted)
T3 construct: expressed in transfected cells; host or cells: SK-N-MC sublines with reporter construct
Excerpt: (§1) Sublines of SK-N-MC cells were created that expressed a reporter construct and either the human or rat H3 receptor. The pA2 values were obtained as described by Barbier et al. (2004). Data for compounds tested in these assays are presented in Table 3, as an average of the results obtained (NT=not tested).

Rat H3 [3] = molecular target: T2, Rat H3; assay: Cyclic AMP Accumulation (rat H3 receptor); assay type: cell-based; set-up: expressed in transfected cells; host or cells: SK-N-MC sublines with reporter construct; settings: SK-N-MC cells expressing a reporter construct and the rat H3 receptor; average; read-out: Rat pA2 (converted)
Excerpt: as §1

T3 sequence (Q9Y5N1 whole entry): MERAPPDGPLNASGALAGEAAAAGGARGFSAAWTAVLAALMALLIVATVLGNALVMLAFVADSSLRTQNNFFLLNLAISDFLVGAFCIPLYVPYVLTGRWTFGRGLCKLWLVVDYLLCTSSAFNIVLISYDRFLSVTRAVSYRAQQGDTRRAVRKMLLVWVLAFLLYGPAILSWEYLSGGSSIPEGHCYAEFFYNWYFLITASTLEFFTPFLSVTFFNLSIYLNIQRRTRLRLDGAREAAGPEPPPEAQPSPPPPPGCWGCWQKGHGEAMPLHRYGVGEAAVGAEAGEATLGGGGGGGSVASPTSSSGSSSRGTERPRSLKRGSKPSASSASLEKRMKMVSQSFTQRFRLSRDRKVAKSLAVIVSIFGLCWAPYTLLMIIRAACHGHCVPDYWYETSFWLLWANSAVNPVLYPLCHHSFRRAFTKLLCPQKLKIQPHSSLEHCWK
T1 sequence (Q9Y5N1 whole entry): as above
T2 sequence (Q9QYN8 whole entry): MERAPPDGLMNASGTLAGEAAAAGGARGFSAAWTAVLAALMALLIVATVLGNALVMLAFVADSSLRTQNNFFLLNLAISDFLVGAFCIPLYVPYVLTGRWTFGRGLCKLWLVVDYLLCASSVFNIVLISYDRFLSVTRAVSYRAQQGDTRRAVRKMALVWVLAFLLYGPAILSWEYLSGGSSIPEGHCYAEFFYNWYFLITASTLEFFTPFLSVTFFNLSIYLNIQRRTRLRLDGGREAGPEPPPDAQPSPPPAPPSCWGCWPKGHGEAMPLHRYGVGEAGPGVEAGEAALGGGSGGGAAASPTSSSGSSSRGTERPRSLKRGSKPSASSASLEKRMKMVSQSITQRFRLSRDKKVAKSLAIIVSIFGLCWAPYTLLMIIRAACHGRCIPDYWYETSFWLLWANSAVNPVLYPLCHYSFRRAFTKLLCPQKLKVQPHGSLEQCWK

SMILES	Ki [1]	Ki (Rat H3 [2])	Kb (human H3 receptor)	Kb (Rat H3 [3])
O=C(c1ccc2c(c1)CCN(C1CCC1)C2)N1CCN2CCCCC2C1 (centres unmarked) [Example 187, (2-Cyclobutyl-1,2,3,4-tetrahydro-isoquinolin-6-yl)-(octahydro-pyrido[1,2-a]pyrazin-2-yl)-methanone]	3 nM	30 nM		
CCCC(=O)N1CCc2cc(C(=O)N3CCC[C@H]3CN3CCCC3)ccc2C1 [Example 46, (S)-1-[6-(2-Pyrrolidin-1-ylmethyl-pyrrolidine-1-carbonyl)-3,4-dihydro-1H-isoquinolin-2-yl]-butan-1-one]	4 nM		2.82 nM	18.2 nM
CCC(=O)N1CCc2cc(C(=O)N3CCCN(C4CCC4)CC3)ccc2C1 [Example 139, 1-[6-(4-Cyclobutyl-[1,4]diazepane-1-carbonyl)-3,4-dihydro-1H-isoquinolin-2-yl]-propan-1-one]	1 nM	7 nM		
O=C(c1ccc2c(c1)CCN(C(=O)C1CCOC1)C2)N1CCCN(C2CCC2)CC1 (centres unmarked) [Example 137, [6-(4-Cyclobutyl-[1,4]diazepane-1-carbonyl)-3,4-dihydro-1H-isoquinolin-2-yl]-(tetrahydro-furan-3-yl)-methanone]	1 nM	8 nM		
O=C(c1ccc2c(c1)CCN(C(=O)C1CCCCC1)C2)N1CCCN(C2CCC2)CC1 [Example 40, [6-(4-Cyclobutyl-[1,4]diazepane-1-carbonyl)-3,4-dihydro-1H-isoquinolin-2-yl]-cyclohexyl-methanone]	1 nM		0.355 nM	2.88 nM
O=C(c1ccc2c(c1)CN(Cc1ccccc1)CC2)N1CCN(C2CCC2)CC1 [Example 26, (2-Benzyl-1,2,3,4-tetrahydro-isoquinolin-7-yl)-(4-cyclobutyl-piperazin-1-yl)-methanone]	2 nM		17.8 nM	
O=C(c1ccc2c(c1)CCN(C(=O)C1CCCC1)C2)N1CCCN(C2CCC2)CC1 [Example 39, [6-(4-Cyclobutyl-[1,4]diazepane-1-carbonyl)-3,4-dihydro-1H-isoquinolin-2-yl]-cyclopentyl-methanone]	1 nM		0.38 nM	3.02 nM
O=C(c1ccc2c(c1)CCN(Cc1ccsc1)C2)N1CCN(C2CCC2)CC1 [Example 15, (4-Cyclobutyl-piperazin-1-yl)-(2-thiophen-3-ylmethyl-1,2,3,4-tetrahydro-isoquinolin-6-yl)-methanone]	4 nM		1.05 nM	
O=C(c1ccc2c(c1)CCN(Cc1ccccc1)C2)N1CCN(C2CCC2)CC1 [Example 18, (2-Benzyl-1,2,3,4-tetrahydro-isoquinolin-6-yl)-(4-cyclobutyl-piperazin-1-yl)-methanone]	5 nM	2 nM	1.29 nM	2.4 nM
Cc1ccc(C(=O)N2CCc3cc(C(=O)N4CCCN(C5CCC5)CC4)ccc3C2)cc1F [Example 142, [6-(4-Cyclobutyl-[1,4]diazepane-1-carbonyl)-3,4-dihydro-1H-isoquinolin-2-yl]-(3-fluoro-4-methyl-phenyl)-methanone]	1 nM	28 nM		
O=C(c1ccc2c(c1)CCN(C(=O)c1ccccc1F)C2)N1CCCN(C2CCC2)CC1 [Example 136, [6-(4-Cyclobutyl-[1,4]diazepane-1-carbonyl)-3,4-dihydro-1H-isoquinolin-2-yl]-(2-fluoro-phenyl)-methanone]	1 nM	16 nM		
O=C(c1ccc2c(c1)CCN(C(=O)c1ccccc1)C2)N1CCN(C2CCC2)CC1 [Example 27, (2-Benzoyl-1,2,3,4-tetrahydro-isoquinolin-6-yl)-(4-cyclobutyl-piperazin-1-yl)-methanone]	9 nM	84 nM		
CC(C)N1CCc2cc(C(=O)N3CCCN(C4CCC4)CC3)ccc2C1 [Example 177, (4-Cyclobutyl-[1,4]diazepan-1-yl)-(2-isopropyl-1,2,3,4-tetrahydro-isoquinolin-6-yl)-methanone]	1 nM	1 nM		
CC(C)N1CCCN(C(=O)c2ccc3c(c2)CCN(Cc2ccccc2)C3)CC1 [Example 11, (2-Benzyl-1,2,3,4-tetrahydro-isoquinolin-6-yl)-(4-isopropyl-[1,4]diazepan-1-yl)-methanone]	1 nM		0.661 nM	4.47 nM
CCC(=O)N1CCc2cc(C(=O)N3CCC[C@H]3CN3CCCC3)ccc2C1 [Example 45, (S)-1-[6-(2-Pyrrolidin-1-ylmethyl-pyrrolidine-1-carbonyl)-3,4-dihydro-1H-isoquinolin-2-yl]-propan-1-one]	6 nM		2.82 nM	20.4 nM
O=C(c1ccc2c(c1)CCN(C(=O)C1CCCCC1)C2)N1CCN(C2CCC2)CC1 [Example 33, [6-(4-Cyclobutyl-piperazine-1-carbonyl)-3,4-dihydro-1H-isoquinolin-2-yl]-cyclohexyl-methanone]	8 nM	123 nM		13.8 nM
O=C(c1ccc2c(c1)CCN(C(=O)c1ccc(F)cc1F)C2)N1CCCN(C2CCC2)CC1 [Example 144, [6-(4-Cyclobutyl-[1,4]diazepane-1-carbonyl)-3,4-dihydro-1H-isoquinolin-2-yl]-(2,4-difluoro-phenyl)-methanone]	1 nM	32 nM		
O=C(c1ccc2c(c1)CCN(C(=O)c1ccc(Cl)cc1)C2)N1CCCN(C2CCC2)CC1 [Example 133, (4-Chloro-phenyl)-[6-(4-cyclobutyl-[1,4]diazepane-1-carbonyl)-3,4-dihydro-1H-isoquinolin-2-yl]-methanone]	2 nM	18 nM		
O=C(c1ccc2c(c1)CCN(C(=O)c1cccc(Cl)c1)C2)N1CCCN(C2CCC2)CC1 [Example 135, (3-Chloro-phenyl)-[6-(4-cyclobutyl-[1,4]diazepane-1-carbonyl)-3,4-dihydro-1H-isoquinolin-2-yl]-methanone]	1 nM	11 nM		
O=C(c1ccc2c(c1)CCN(C(=O)C1CCCC1)C2)N1CCN(C2CCC2)CC1 [Example 32, [6-(4-Cyclobutyl-piperazine-1-carbonyl)-3,4-dihydro-1H-isoquinolin-2-yl]-cyclopentyl-methanone]	5 nM	135 nM	8.51 nM	15.1 nM
O=C(c1ccc2c(c1)CN(C(=O)c1ccccc1)CC2)N1CCCN(C2CCC2)CC1 [Example 36, [7-(4-Cyclobutyl-[1,4]diazepane-1-carbonyl)-3,4-dihydro-1H-isoquinolin-2-yl]-phenyl-methanone]	1 nM		0.49 nM	3.8 nM
O=C(c1ccc2c(c1)CCN(C(=O)c1ccccc1)C2)N1CCCN(C2CCC2)CC1 [Example 35, [6-(4-Cyclobutyl-[1,4]diazepane-1-carbonyl)-3,4-dihydro-1H-isoquinolin-2-yl]-phenyl-methanone]	1 nM		0.513 nM	2.34 nM
CC(C)N1CCCN(C(=O)c2ccc3c(c2)CCNC3)CC1 [Example 5, (4-Isopropyl-[1,4]diazepan-1-yl)-(1,2,3,4-tetrahydro-isoquinolin-6-yl)-methanone]	3 nM		1.55 nM	15.8 nM
CC(C)N1CCN(C(=O)c2ccc3c(c2)CCN(Cc2ccc(Cl)cc2)C3)CC1 [Example 22, [2-(4-Chloro-benzyl)-1,2,3,4-tetrahydro-isoquinolin-6-yl]-(4-isoproplyl-piperazin-1-yl)-methanone]	5 nM		10.5 nM	30.9 nM
